This is an account of results in patent US12187709B2 (Genentech, Inc., priority 2021, dated 2025).

Molecules are shown by their SMILES.

One test deals with c-Cbl (residues 47-435) (Homo sapiens (Human), UniProt P22681). Nature of the test: c-Cbl SPR assay. In kind it is binding. To be noted: 20° C. In a few lines: (§1)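 Where a chaser compound was used, % compound bound was calculated as (1−(RUT/RUT0))*100 relative to a prior chaser injection and fitted to a single exponential for kd. The single cycle titration (max 500 nM) was then fitted with kd held fixed.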

The target of test [1] is Human Cbl-b (residues 40-426) (Homo sapiens (Human), UniProt Q13191). The test is described as follows: Cbl-b SPR assay. The note with it: for Fold of selectivity: C-cbl SPR Kd vs Cbl-b SPR Kd; for Kd: SPR, 20° C. Type of test: binding. Summed up:
as §1
(Surface plasmon resonance follows binding to a sensor surface in real time, without labels.)

For a further test, the target named is c-Cbl (Homo sapiens (Human), UniProt P22681). Nature of the test: C-Cbl LCK Ub TR-FRET assay (C-cbl Lck HTRF). In kind it is biochemical. Summed up:
(§2)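 Signal is read once the detection mix has stood 20 min at ambient temperature. Curves are anchored by DMSO as maximum and by omission of LCK as minimum.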

The next test addresses Cbl-b (Homo sapiens (Human), UniProt Q13191). Nature of the test: Cbl-b LCK Ub TR-FRET assay (Cbl-b Lck HTRF). To be noted: for IC50: Cbl-b LCK Ub TR-FRET; for fold-selectivity (Cbl-b over C-cbl): ratio C-cbl Lck HTRF IC50 / Cbl-b Lck HTRF IC50. Type of test: biochemical. Summed up: as §2
Background: TR-FRET usually uses a lanthanide donor and a delayed reading to cut background.

Sequence of Cbl-b (Q13191 40-426): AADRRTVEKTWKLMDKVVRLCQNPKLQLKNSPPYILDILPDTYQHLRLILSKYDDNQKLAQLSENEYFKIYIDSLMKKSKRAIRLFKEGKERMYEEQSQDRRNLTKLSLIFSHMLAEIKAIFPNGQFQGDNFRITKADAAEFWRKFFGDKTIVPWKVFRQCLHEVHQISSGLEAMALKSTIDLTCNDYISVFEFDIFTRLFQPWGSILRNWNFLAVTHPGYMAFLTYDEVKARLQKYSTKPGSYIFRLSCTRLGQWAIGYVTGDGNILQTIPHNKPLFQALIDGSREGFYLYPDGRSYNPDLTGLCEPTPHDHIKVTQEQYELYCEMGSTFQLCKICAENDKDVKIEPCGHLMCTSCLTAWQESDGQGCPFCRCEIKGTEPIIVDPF
Sequence of Human Cbl-b (residues 40-426) (Q13191 40-426): as above
Sequence of c-Cbl (P22681 47-435): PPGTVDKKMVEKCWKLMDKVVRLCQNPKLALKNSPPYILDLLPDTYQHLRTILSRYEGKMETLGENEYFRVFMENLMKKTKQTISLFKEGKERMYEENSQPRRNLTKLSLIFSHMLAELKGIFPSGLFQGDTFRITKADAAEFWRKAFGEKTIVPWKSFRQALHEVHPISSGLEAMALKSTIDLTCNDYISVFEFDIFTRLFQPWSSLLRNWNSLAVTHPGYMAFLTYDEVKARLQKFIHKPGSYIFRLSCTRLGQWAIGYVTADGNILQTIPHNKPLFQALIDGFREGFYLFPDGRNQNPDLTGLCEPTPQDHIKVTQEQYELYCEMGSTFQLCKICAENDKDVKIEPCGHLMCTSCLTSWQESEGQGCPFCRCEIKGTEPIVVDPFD
Sequence of c-Cbl (residues 47-435) (P22681 47-435): as above

One may read the Kd as the equilibrium constant for the complex coming apart. The low end stands for tighter binding, the high end for weaker binding. As a reminder, the IC50 is the concentration at which inhibition is half-maximal. With `Cn1cnnc1[C@]1(c2cccc(N3Cc4c(cc(CNC5(C)CCC5)cc4C(F)(F)F)C3=O)c2)C[C@@H](CF)C1` [Compound 101, 2-(3-((1r,3r)-3-(fluoromethyl)-1-(4-methyl-4H-1,2,4-triazol-3-yl)cyclobutyl)phenyl)-6-(((1-methylcyclobutyl)amino)methyl)-4-(trifluoromethyl)isoindolin-1-one], the values for the dissociation constant (Kd) (on c-Cbl (residues 47-435); in test [1]) were 4.2 nM and 0.85 nM, respectively. Further, the Fold of selectivity in test [1] was 4.9×. Also, the figures for the IC50 on c-Cbl and against Cbl-b were 9.8 nM and 9.1 nM, respectively. Further, the “fold-selectivity (Cbl-b over C-cbl)” value on Cbl-b is 1.1x.
As to `Cn1cnnc1[C@]1(c2cccc(N3Cc4c(cc(CNC5(C)CCC5)cc4C(F)(F)F)C3=O)c2)C[C@H](CF)C1` [Compound 102, 2-(3-((1s,3s)-3-(fluoromethyl)-1-(4-methyl-4H-1,2,4-triazol-3-yl)cyclobutyl)phenyl)-6-(((1-methylcyclobutyl)amino)methyl)-4-(trifluoromethyl)isoindolin-1-one], the affinity at c-Cbl (residues 47-435), expressed as Kd, was 3.9 nM. In test [1], this molecule displayed a Fold of selectivity of 4.7× and a Kd of 0.83 nM. This molecule had a half-inhibitory concentration (IC50) at c-Cbl of 11 nM. At Cbl-b, the IC50 turned out to be 7.2 nM and the “fold-selectivity (Cbl-b over C-cbl)” value worked out at 1.5x.
For the molecule `COC[C@H]1C[C@@](c2cccc(N3Cc4c(cc(CNC5(C)CCC5)cc4C(F)(F)F)C3=O)c2)(c2nncn2C)C1` [Compound 103, 2-(3-((1s,3s)-3-(methoxymethyl)-1-(4-methyl-4H-1,2,4-triazol-3-yl)cyclobutyl)phenyl)-6-(((1-methylcyclobutyl)amino)methyl)-4-(trifluoromethyl)isoindolin-1-one], the affinity on c-Cbl (residues 47-435), expressed as Kd, was 12 nM. In test [1], this molecule yielded a Fold of selectivity of 7.8× and an equilibrium dissociation constant (Kd) of 1.6 nM. Moreover, the IC50 against c-Cbl was 26 nM. For the same molecule, on Cbl-b, the 50% inhibitory concentration (IC50) amounted to 14 nM and the “fold-selectivity (Cbl-b over C-cbl)” value worked out at 1.7x.
For `COC[C@H]1C[C@](c2cccc(N3Cc4c(cc(CNC5(C)CCC5)cc4C(F)(F)F)C3=O)c2)(c2nncn2C)C1` [Compound 104, 2-(3-((1r,3r)-3-(methoxymethyl)-1-(4-methyl-4H-1,2,4-triazol-3-yl)cyclobutyl)phenyl)-6-(((1-methylcyclobutyl)amino)methyl)-4-(trifluoromethyl)isoindolin-1-one], the dissociation constant (Kd) on c-Cbl (residues 47-435) is 15 nM. In test [1], this molecule came in with a Fold of selectivity of 9.1× and an equilibrium dissociation constant (Kd) of 1.6 nM. 17 nM corresponded to half-maximal inhibition against c-Cbl (IC50). For the same molecule, at Cbl-b, the IC50 was 13 nM and the “fold-selectivity (Cbl-b over C-cbl)” value was 1.4x.
`Cn1cnnc1[C@]1(c2cccc(N3Cc4c(cc(CNC5(C)CCC5)cc4C(F)(F)F)C3=O)c2)C[C@]2(CCO2)C1` [Compound 108, 2-(3-((4r,6r)-6-(4-methyl-4H-1,2,4-triazol-3-yl)-1-oxaspiro[3.3]heptan-6-yl)phenyl)-6-(((1-methylcyclobutyl)amino)methyl)-4-(trifluoromethyl)isoindolin-1-one] showed a Kd at c-Cbl (residues 47-435) of 120 nM. In addition, in test [1], the Fold of selectivity is 21× and binding was put at a Kd of 5.2 nM. Further, on c-Cbl, the IC50 amounted to 160 nM. At Cbl-b, the IC50 worked out at 17 nM and the “fold-selectivity (Cbl-b over C-cbl)” value is recorded as 9.2x.
Take `Cn1cnnc1[C@]1(c2cccc(N3Cc4c(cc(CNC5(C)CCC5)cc4C(F)(F)F)C3=O)c2)C[C@@]2(CCO2)C1` [Compound 109, 2-(3-((4s,6s)-6-(4-methyl-4H-1,2,4-triazol-3-yl)-1-oxaspiro[3.3]heptan-6-yl)phenyl)-6-(((1-methylcyclobutyl)amino)methyl)-4-(trifluoromethyl)isoindolin-1-one]: the values for the Kd (on c-Cbl (residues 47-435); in test [1]) were 140 nM and 21 nM, respectively. The Fold of selectivity in test [1] turned out to be 7.0×. Further, the concentration for half-maximal inhibition (IC50) at c-Cbl amounted to 220 nM; against Cbl-b it was 47 nM. Besides, the “fold-selectivity (Cbl-b over C-cbl)” value on Cbl-b is 4.6x.
Regarding `Cn1cnnc1C1(c2cccc(N3Cc4c(cc(CNC5(C)CCC5)cc4C(F)(F)F)C3=O)c2)CN(CC(F)(F)F)C1` [Compound 110, 2-(3-(3-(4-methyl-4H-1,2,4-triazol-3-yl)-1-(2,2,2-trifluoroethyl)azetidin-3-yl)phenyl)-6-(((1-methylcyclobutyl)amino)methyl)-4-(trifluoromethyl)isoindolin-1-one], the Kd at c-Cbl (residues 47-435) is 7600 nM. In test [1], this molecule had a Fold of selectivity of 7.2× and a Kd of 1100 nM. This molecule gave a 50% inhibitory concentration (IC50) against c-Cbl of 9400 nM. Also, on Cbl-b, the concentration for half-maximal inhibition (IC50) came out at 1400 nM and the “fold-selectivity (Cbl-b over C-cbl)” value was 6.5x.
As for `Cn1cnnc1C1(c2cccc(N3Cc4c(cc(CNC5(C)CCC5)cc4C(F)(F)F)C3=O)c2)CN(C2COC2)C1` [Compound 111, 2-(3-(3-(4-methyl-4H-1,2,4-triazol-3-yl)-1-(oxetan-3-yl)azetidin-3-yl)phenyl)-6-(((1-methylcyclobutyl)amino)methyl)-4-(trifluoromethyl)isoindolin-1-one], the Kd on c-Cbl (residues 47-435) came to 31000 nM; in test [1], 3600 nM. The same molecule had a Fold of selectivity in test [1] of 8.6×. Besides, the IC50 is 20000 nM at c-Cbl and 4900 nM against Cbl-b. The “fold-selectivity (Cbl-b over C-cbl)” value at Cbl-b amounted to 4.1x.
In the case of `Cn1cnnc1C1(c2cccc(N3Cc4c(cc(CNC5(C)CCC5)cc4C(F)(F)F)C3=O)c2)CN(S(C)(=O)=O)C1` [Compound 113, 2-(3-(3-(4-methyl-4H-1,2,4-triazol-3-yl)-1-(methylsulfonyl)azetidin-3-yl)phenyl)-6-(((1-methylcyclobutyl)amino)methyl)-4-(trifluoromethyl)isoindolin-1-one], the Kd on c-Cbl (residues 47-435) was determined as 34000 nM; in test [1], 2700 nM. The molecule further registered a Fold of selectivity in test [1] of 13×. The IC50 at c-Cbl was 18000 nM; against Cbl-b it was 3500 nM. Also, the “fold-selectivity (Cbl-b over C-cbl)” value on Cbl-b is 5.3x.
As to `CO[C@H]1C[C@@](c2cccc(N3Cc4c(cc(CNC5(C)CCC5)cc4C(F)F)C3=O)c2)(c2nncn2C)C1` [Compound 116, 4-(difluoromethyl)-2-(3-((1s,3s)-3-methoxy-1-(4-methyl-4H-1,2,4-triazol-3-yl)cyclobutyl)phenyl)-6-(((1-methylcyclobutyl)amino)methyl)isoindolin-1-one], the Kd on c-Cbl (residues 47-435) stood at 110 nM; in test [1], 8.1 nM. In addition, the Fold of selectivity in test [1] turned out to be 15×. Besides, the 50% inhibitory concentration (IC50) stood at 150 nM against c-Cbl and 25 nM against Cbl-b. Moreover, the “fold-selectivity (Cbl-b over C-cbl)” value at Cbl-b was 6.0x.
Molecule `CO[C@H]1C[C@](c2cccc(N3Cc4c(cc(CNC5(C)CCC5)cc4C(F)F)C3=O)c2)(c2nncn2C)C1` [Compound 117, 4-(difluoromethyl)-2-(3-((1r,3r)-3-methoxy-1-(4-methyl-4H-1,2,4-triazol-3-yl)cyclobutyl)phenyl)-6-(((1-methylcyclobutyl)amino)methyl)isoindolin-1-one] registered a Kd on c-Cbl (residues 47-435) of 53 nM. In test [1], this molecule registered a Fold of selectivity of 16× and a dissociation constant Kd of 3.2 nM. For the same molecule, at c-Cbl, inhibition was half-maximal at 60 nM (IC50). On Cbl-b, the half-inhibitory concentration (IC50) was 12 nM and the “fold-selectivity (Cbl-b over C-cbl)” value amounted to 5.0x.
